# Laboratory results published in paper PMC10222209 (Pharmaceuticals, 2023).
# Read-outs that look alike come from different tables or passages of the source.
# How the values were obtained:
# [1] = target: T1, AR-V7 (Homo sapiens, UniProt P10275); assay: AR-V7 downregulation in LNCaP95 cells (automated Western, Wes); conditions: for downregulating the AR-V7, in words: LNCaP95; for DC50: read-out: AR-V7 Downregulation IC50, LNCaP95, 24 h treatment
# T1 sequence (P10275 1-644 isoform P10275-3): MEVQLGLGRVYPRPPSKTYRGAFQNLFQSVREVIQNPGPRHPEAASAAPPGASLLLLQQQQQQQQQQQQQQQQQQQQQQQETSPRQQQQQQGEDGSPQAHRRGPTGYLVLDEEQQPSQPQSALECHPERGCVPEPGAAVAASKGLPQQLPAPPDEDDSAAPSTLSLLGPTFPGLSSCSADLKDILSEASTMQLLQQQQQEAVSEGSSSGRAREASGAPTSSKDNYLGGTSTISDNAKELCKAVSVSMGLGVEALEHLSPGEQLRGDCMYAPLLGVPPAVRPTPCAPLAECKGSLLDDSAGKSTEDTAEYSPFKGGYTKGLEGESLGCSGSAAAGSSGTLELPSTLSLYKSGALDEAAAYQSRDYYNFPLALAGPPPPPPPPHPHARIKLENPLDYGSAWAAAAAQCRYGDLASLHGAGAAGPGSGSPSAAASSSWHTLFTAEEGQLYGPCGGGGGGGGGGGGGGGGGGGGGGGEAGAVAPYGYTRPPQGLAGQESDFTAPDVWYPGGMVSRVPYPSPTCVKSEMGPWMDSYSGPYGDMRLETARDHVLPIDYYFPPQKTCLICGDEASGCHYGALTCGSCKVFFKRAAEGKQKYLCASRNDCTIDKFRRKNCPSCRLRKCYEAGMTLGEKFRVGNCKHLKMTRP
# Experimental: (§2) Total AR and AR-V7 protein levels were determined using automated Western blotting (Wes Simple Western Analysis, ProteinSimple, San Jose, CA, USA). WES analyses were performed following the WES user manual. Briefly, LNCaP95 and 22RV1 cells were plated in a 12-well plate at a density of 2.5 × 10^5 cells per well. […] Samples were mixed with a master mix (ProteinSimple, San Jose, CA, USA) to give a final concentration of 0.2 mg/mL total protein, 1 × sample buffer, 1 × fluorescent molecular weight markers, and 40 mM DTT. Samples were heated at 95 °C for 5 min followed by centrifugation. Samples, blocking solution, primary antibodies, horseradish peroxidase-conjugated secondary antibodies, chemiluminescent substrate, and separation and stacking matrices were loaded into designated wells in a 384 well plate. After plate loading, fully automated electrophoresis and immunodetection took place in the capillary system. Proteins were separated by molecular weight at 375 V for 25 min, and primary and secondary antibodies were incubated for 30 min. The AR (Santa Cruz, Santa Cruz, CA, USA), AR-V7 (Santa Cruz, Santa Cruz, CA, USA), and actin (Novus, cat #NB600-503) antibodies were diluted in a proprietary antibody diluent at a 1:50 dilution ratio. Chemiluminescence was captured by a charge-coupled device camera, and the digital image was analyzed using Compass software 6.2.0 (ProteinSimple). The amount of each protein, relative to total protein content, was calculated based on peak areas. Total AR and AR-V7 levels were normalized to actin.
# [2] = target: T1, AR-V7; assay: AR-V7 downregulation in 22RV1 cells (automated Western, Wes); conditions: read-out: AR-V7 Downregulation IC50; 22RV1, 24 h treatment
# Experimental: as §2
# [3] = test system: LNCaP95 cells; assay: Antiproliferative assay (resazurin, 72 h) in LNCaP95 cells; assay type: cell-based
# Experimental: (§1) 22Rv1 cells were obtained from ATCC. LNCaP95 cells were provided by Dr. Yan Dong’s laboratory (Tulane University School of Medicine). LNCaP95 cells were maintained in an RPMI1640 medium with charcoal-stripped serum (CSS). 22Rv1 cells were maintained in an RPMI1640 medium with 10% FBS. Cells were seeded in 96-well plates (5 × 10^3 cells/well) containing a 50 μL growth medium for 24 h. After medium removal, a 100 μL fresh medium containing individual compounds at different concentrations was added to each well and incubated at 37 °C for 72 h. Then, 20 μL of resazurin was added for 2 h before recording fluorescence at 560 nm (excitation) and 590 nm (emission) using a Victor microtiter plate fluorometer (Perkin-Elmer, Waltham, MA, USA).
# [4] = test system: 22RV1 cells; assay: Antiproliferative assay (resazurin, 72 h) in 22RV1 cells; assay type: cell-based; conditions: for inhibition at 1 µM / IC50: Homo sapiens; for antiproliferative activity, in words: enzalutamide-resistant cell lines LNCaP95 and 22RV1, SAR statements
# Experimental: as §1
# [5] = target: T2, AR-full length (AR-FL) (Homo sapiens, UniProt P10275, T878A); assay: AR downregulation in LNCaP95 cells (automated Western, Wes); conditions: for downregulating the AR-FL, in words: LNCaP95; for DC50: read-out: AR Downregulation IC50, LNCaP95, 24 h treatment
# T2 sequence (P10275 1-920 T878A): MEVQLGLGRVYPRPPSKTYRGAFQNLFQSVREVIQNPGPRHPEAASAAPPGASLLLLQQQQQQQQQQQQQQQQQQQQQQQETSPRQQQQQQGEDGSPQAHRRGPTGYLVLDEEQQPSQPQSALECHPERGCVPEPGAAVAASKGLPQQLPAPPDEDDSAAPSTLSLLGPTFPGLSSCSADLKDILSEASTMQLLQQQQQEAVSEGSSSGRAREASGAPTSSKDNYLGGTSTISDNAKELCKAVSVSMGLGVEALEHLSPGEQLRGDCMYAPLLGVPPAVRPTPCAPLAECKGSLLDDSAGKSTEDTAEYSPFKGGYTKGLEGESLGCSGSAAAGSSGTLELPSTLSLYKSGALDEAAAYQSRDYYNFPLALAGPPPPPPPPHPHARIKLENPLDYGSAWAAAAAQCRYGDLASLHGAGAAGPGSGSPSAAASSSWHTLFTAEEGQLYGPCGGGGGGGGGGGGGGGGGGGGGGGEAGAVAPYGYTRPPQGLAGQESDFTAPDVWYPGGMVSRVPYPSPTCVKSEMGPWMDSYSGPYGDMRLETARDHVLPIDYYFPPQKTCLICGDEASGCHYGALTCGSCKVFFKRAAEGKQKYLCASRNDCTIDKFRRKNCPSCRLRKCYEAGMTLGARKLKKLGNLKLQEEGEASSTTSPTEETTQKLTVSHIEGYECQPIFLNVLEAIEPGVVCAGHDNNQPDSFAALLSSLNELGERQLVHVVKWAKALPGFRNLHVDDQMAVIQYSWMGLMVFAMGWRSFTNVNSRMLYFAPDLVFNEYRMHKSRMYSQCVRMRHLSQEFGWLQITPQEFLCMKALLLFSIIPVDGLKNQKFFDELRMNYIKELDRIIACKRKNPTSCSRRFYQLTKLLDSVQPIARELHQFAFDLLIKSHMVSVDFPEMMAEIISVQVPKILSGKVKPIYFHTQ
# Experimental: as §2
# [6] = LNCaP-95, antiproliferation, LNCaP95, 72 h, mean of three independent experiments, read-out: IC50 (μM) LNCaP95
# [7] = 22RV1, 1.0 μM, read-out: Inhibitory Rate 22RV1 @1.0 μM
# [8] = antiproliferation, 22RV1, 72 h, mean of three independent experiments, read-out: IC50 (μM) 22RV1
# [9] = observed, −log IC50, 22RV1 antiproliferation, read-out: Obs pIC50 (converted)
"downregulating the AR-V7, in words [1]",DC50 [1],DC50 [2],"IC50 [3, 6]","IC50 [4, 8]","IC50 [4, 9]","downregulating the AR-FL, in words [5]",DC50 [5],"IC50 ([3]; LNCaP-95, antiproliferation, approximate value, read-out: IC50 in LNCaP95 (text))","IC50 ([4]; 22Rv1, antiproliferation, approximate value, read-out: IC50 in 22RV1 (text))",Structure (SMILES),"inhibition at 1 µM [4, 7]","antiproliferative activity, in words [4]","IC50 ([3]; LNCaP-95, 72 h, read-out: IC50 (μM) LNCaP95)","IC50 ([4]; 22Rv1, 72 h, read-out: IC50 (μM) 22RV1)","inhibition at 1 µM ([4]; 22Rv1, read-out: Inhibitory Rate 22RV1 @1.0 μM)","IC50 ([4]; 22Rv1, read-out: Obs pIC50 (converted))"
strong activity,280 ± 117 nM,4280 ± 1360 nM,0.239 ± 0.072 µM,0.258 ± 0.097 µM,0.258 µM,strong activity,463 ± 224 nM,,,O=C(Nc1ccc(C(F)(F)F)c(C(F)(F)F)c1)c1cc(Cl)ccc1O [B1],59.2%,equivalent or improved anti-proliferation potency,,,,
strong activity,467 ± 204 nM,2860 ± 950 nM,0.13 ± 0.033 µM,0.0997 ± 0.0221 µM,0.0991 µM,strong activity,551 ± 173 nM,~0.1 µM,~0.1 µM,O=C(Nc1ccc(C(F)(F)F)c(C(F)(F)F)c1)c1cc(F)ccc1O [B9],84.3%,equivalent or improved anti-proliferation potency,,,,
strong activity,491 ± 156 nM,> 10000 nM,0.199 ± 0.055 µM,0.382 ± 0.078 µM,0.382 µM,strong activity,498 ± 185 nM,,,O=C(Nc1ccc(C(F)(F)F)c(C(F)(F)F)c1)c1cc(F)c(F)cc1O [B14],47.3%,,,,,

Structure (SMILES),"downregulating the AR-V7, in words [1]",DC50 [1],DC50 [2],"IC50 [3, 6]","IC50 [4, 8]","IC50 [4, 9]","downregulating the AR-FL, in words [5]",DC50 [5],"IC50 ([3]; LNCaP-95, antiproliferation, approximate value, read-out: IC50 in LNCaP95 (text))","IC50 ([4]; 22Rv1, antiproliferation, approximate value, read-out: IC50 in 22RV1 (text))","inhibition at 1 µM [4, 7]","antiproliferative activity, in words [4]","IC50 ([3]; LNCaP-95, 72 h, read-out: IC50 (μM) LNCaP95)","IC50 ([4]; 22Rv1, 72 h, read-out: IC50 (μM) 22RV1)","inhibition at 1 µM ([4]; 22Rv1, read-out: Inhibitory Rate 22RV1 @1.0 μM)","IC50 ([4]; 22Rv1, read-out: Obs pIC50 (converted))"
N#Cc1ccc(NC(=O)c2cc(Cl)ccc2O)cc1C(F)(F)F [B3],strong activity,850 ± 246 nM,354 ± 134 nM,,,,strong activity,781 ± 512 nM,,,,,0.354 ± 0.066 µM,0.695 ± 0.246 µM,34.9%,0.695 µM
